In ChEMBL document CHEMBL3091331, “Aminothiazole-featured pirinixic acid derivatives as dual 5-lipoxygenase and microsomal prostaglandin E2 synthase-1 inhibitors with improved potency and efficiency in vivo” (J Med Chem, 2013):
Activity calls are given as the source filed them. No cut-off for these calls is given here.

Legend:
Homo sapiens = species: Homo sapiens; test: Translocation of 5-lipoxygenase from cytosol into nuclear membrane in A23187-stimulated human polymorphonuclear leukocytes assessed as enzyme product formation at 10 uM incubated for 15 mins prior to A23187-challenge measured after 5 mins by Western blotting analysis; assay type: functional
[1] = target: T1, Polyunsaturated fatty acid 5-lipoxygenase (Homo sapiens, UniProt P09917); test: Inhibition of 5-lipoxygenase in A23187-stimulated human polymorphonuclear leukocytes using arachidonic acid as substrate incubated 15 mins prior to substrate addition measured after 10 mins by HPLC analysis
T1 sequence (P09917 whole entry): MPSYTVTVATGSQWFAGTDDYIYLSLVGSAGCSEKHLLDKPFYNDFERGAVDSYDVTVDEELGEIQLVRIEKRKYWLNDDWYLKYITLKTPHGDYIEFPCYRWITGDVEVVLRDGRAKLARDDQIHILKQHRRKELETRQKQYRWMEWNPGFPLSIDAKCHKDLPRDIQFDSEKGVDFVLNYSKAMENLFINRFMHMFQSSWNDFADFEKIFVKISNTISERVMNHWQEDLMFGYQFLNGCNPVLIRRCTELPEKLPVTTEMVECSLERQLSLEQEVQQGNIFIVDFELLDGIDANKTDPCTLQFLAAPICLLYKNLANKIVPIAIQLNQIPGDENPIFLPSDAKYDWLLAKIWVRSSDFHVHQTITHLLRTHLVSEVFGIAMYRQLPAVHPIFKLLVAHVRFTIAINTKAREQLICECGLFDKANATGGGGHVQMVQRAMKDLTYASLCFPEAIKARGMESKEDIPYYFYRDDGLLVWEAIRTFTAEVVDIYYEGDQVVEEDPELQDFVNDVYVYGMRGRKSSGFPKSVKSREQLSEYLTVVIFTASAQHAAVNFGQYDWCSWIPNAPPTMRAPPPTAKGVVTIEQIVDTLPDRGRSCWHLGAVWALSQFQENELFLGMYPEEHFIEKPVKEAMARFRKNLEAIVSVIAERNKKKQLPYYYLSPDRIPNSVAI

[2] = target: T1, Polyunsaturated fatty acid 5-lipoxygenase; test: Inhibition of human recombinant 5-lipoxygenase expressed in Escherichia coli BL21 using arachidonic acid as substrate incubated 5 to 10 mins prior to substrate addition measured after 10 mins by HPLC analysis
Prostaglandin E synthase = target: T2, Prostaglandin E synthase (Homo sapiens, UniProt O14684); test: Inhibition of mPGES-1 from human A549 cell microsomal membranes using PGH2 as substrate incubated 15 mins prior to substrate addition measured after 1 min by RP-HPLC analysis
T2 sequence (O14684 whole entry): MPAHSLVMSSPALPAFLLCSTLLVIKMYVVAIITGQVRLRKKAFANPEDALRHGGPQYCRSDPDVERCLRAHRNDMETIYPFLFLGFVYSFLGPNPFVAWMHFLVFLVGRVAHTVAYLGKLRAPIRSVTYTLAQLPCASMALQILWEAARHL

[3] = target: T3, Polyunsaturated fatty acid 5-lipoxygenase (Homo sapiens) (UniProt P09917); test: Ratio of IC50 for human recombinant 5-lipoxygenase expressed in Escherichia coli BL21 to IC50 for 5-lipoxygenase in human PMNL cells
T3 sequence (whole entry): T1 sequence (P09917 whole entry)

[4] = Metabolic stability in Sprague-Dawley rat liver microsomes assessed as compound remaining at 10 uM after 60 mins by HPLC analysis; assay type: ADME; settings: read-out: Stability
[5] = system: Radical scavenging activity; test: Antioxidant activity assessed as DPPH radical scavenging activity at 25 to 100 uM after 30 mins; assay type: functional
[6] = target: T4, Prostaglandin E synthase (Homo sapiens) (UniProt O14684); test: Inhibition of mPGES-1 (unknown origin) assessed as remaining activity at 10 uM; values are per cent of control
T4 sequence (whole entry): T2 sequence (O14684 whole entry)

| Structure (SMILES) | IC50 [1] | IC50 [2] | IC50 (Prostaglandin E synthase) | further results |
| --- | --- | --- | --- | --- |
| CC(C)=CCC[C@]1(C)[C@@H](CC=C(C)C)C[C@]2(CC=C(C)C)C(=O)C(CC=C(C)C)=C(O)[C@@]1(C(=O)C(C)C)C2=O |  |  |  | Activity (Homo sapiens): Active |
| CCCCCCC(Sc1nc(Cl)cc(Nc2nc(-c3ccc(C)cc3)cs2)n1)C(=O)O (stereo unspecified) | 0.2 µM | 3 µM | 0.7 µM | Ratio IC50 [3]: 8 |
| CCCCCCC(Sc1nc(Cl)cc(Nc2nc(-c3ccccc3)c(CC)s2)n1)C(=O)O (stereo unspecified) | 0.7 µM | 1.8 µM | 1.7 µM |  |
| CCOc1ccc2ccc(=O)oc2c1 [ETHOXYCOUMARIN] |  |  |  | remaining at 1 h, 10 µM [4]: 31% |
| CCCCCCC(Sc1nc(Cl)cc(Nc2nc(-c3ccccc3)c(C)s2)n1)C(=O)O (stereo unspecified) | 0.6 µM | 1.9 µM | 0.7 µM | remaining at 1 h, 10 µM [4]: 74% |
| CCCCCCC(Sc1nc(Cl)cc(Nc2cccc(C)c2C)n1)C(=O)O (stereo unspecified) | 3.9 µM |  |  |  |
| CCCCCCC(Sc1nc(Cl)cc(Nc2nc(-c3ccc(Cl)c(Cl)c3)cs2)n1)C(=O)O (stereo unspecified) | 0.4 µM | 0.7 µM | 0.3 µM |  |
| CCCCCCC(Sc1nc(Cl)cc(Nc2nc(-c3ccc([N+](=O)[O-])cc3)cs2)n1)C(=O)O (stereo unspecified) | 1.4 µM | 1.8 µM | 5 µM |  |
| CCCCCCC(Sc1nc(Cl)cc(Nc2nc(C34CC5CC(CC(C5)C3)C4)cs2)n1)C(=O)O (stereo unspecified) | 3.3 µM | 5 µM | 0.9 µM |  |
| CCCCCCC(Sc1nc(Cl)cc(Nc2nc(-c3ccccc3)c(-c3ccccc3)s2)n1)C(=O)O (stereo unspecified) | 0.6 µM | 0.7 µM | 0.6 µM |  |
| CCCCCC[C@@H](Sc1nc(Cl)cc(Nc2nc(-c3ccc4ccccc4c3)cs2)n1)C(=O)O | 0.4 µM | 0.4 µM | 0.6 µM |  |
| CCCCCCC(Sc1nc(Cl)cc(Nc2nc(-c3ccc(Cl)cc3)cs2)n1)C(=O)O (stereo unspecified) | 0.9 µM | 0.8 µM | 0.7 µM |  |
| CCCCCCC(Sc1nc(Cl)cc(Nc2nc(-c3ccc(Cl)cc3Cl)cs2)n1)C(=O)O (stereo unspecified) | 0.8 µM | 1.1 µM | 0.4 µM |  |
| CCCCCCC(Sc1nc(Cl)cc(Nc2nc(-c3ccccc3)cs2)n1)C(=O)O (stereo unspecified) | 0.6 µM | 2 µM | 0.8 µM |  |
| CCCCCCC(Sc1nc(Cl)cc(Nc2nc(-c3cccc4ccccc34)cs2)n1)C(=O)O (stereo unspecified) | 0.4 µM | 0.7 µM | 1.7 µM |  |
| O=C1O[C@H]([C@@H](O)CO)C(O)=C1O |  |  |  | Activity [5]: Active |
| CCCCCCC(Sc1nc(Cl)cc(Nc2ccc3[nH]c(C(F)(F)F)nc3c2)n1)C(=O)O (stereo unspecified) |  |  |  | residual activity [6]: 43.4% |
| CCCCCCC(Sc1nc(Cl)cc(Nc2nc(-c3ccc(OC)cc3)cs2)n1)C(=O)O (stereo unspecified) | 0.8 µM | 1.8 µM | 1.3 µM |  |
